Measured values: publication PMC7483518, “Destabilizing single chain major histocompatibility complex class I protein for repurposed enterokinase proteolysis” (Scientific Reports, 2020)
Where “and” joins values, the source holds several entries; their conditions need not be identical. Equal values may be shown once. Read-outs that look alike come from different tables or passages of the source.

Columns and labels:
[1] = tested on: HLA-A*11:01 single chain protein; format: biochemical, Human; design: EZ50kDa / EZ50kD (pH 6.2) / EZ50kD (pH 8) / EZ50kD (normalised: EBV1101 = 1, EBV0201 = 0) / EZ50kDa rank: unit not given beside the values; conditions: for EZ50kDa: Table 3, EGFR peptide library (n = 177, duplicated), pH 6.2, 37 °C, 14 h, enterokinase, Eq. (4); for vol: mean Adj. Volume of the 2 replicates; for Batch Mean: mean of the 2 replicates of EZ50kD;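 on EZ50kDa: intact 50 kDa band volume scaled with positive control peptide as 1 and negative as 0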
[2] = biological target: photolabile unchained HLA-A*11:01 pMHC-I protein (Homo sapiens, UniProt P04439, A114D/D185E/E176A/F33Y/L180Q/S129P/T187R); assay: ELISA with photolabile unchained pMHC-I protein and UV irradiation; format: binding
[3] = biological target: T1, photo-labile unchained HLA-A*11:01 MHC-I protein (Homo sapiens, UniProt P04439, A114D/D185E/E176A/F33Y/L180Q/S129P/T187R); assay: Photo-labile unchained MHC-I protein treated with UV, peptides and enterokinase (SDS-PAGE band volume); format: biochemical; conditions: for vol: mean Adj. Volume of the 2 replicates; for Batch Mean: mean of the 2 replicates of EZ50kD
T1 construct: made in house

[4] = EGFR mutation peptide library and control peptides, HLA-A*11:01, mean, STDEV

“VAIKTSPKANK [EX1018, EGFR exon 19 deletion-derived peptide]” was tested, and the EZ_mean ([1]; EASY MHC-I A*11:01, 2019-07-26, mean of the 2 replicates) was 0.2216, the EZ50kDa [1] was 0.2 and 0.222 ± 0.010 and the vol [1] was 9218005. The “Batch Mean” value [1] was 0.1404, the EASY_mean ([2]; […], mean, STDEV) was 0.2323 and the vol [3] was 8041509. The “Batch Mean” value [3] was 0.2261.

Sequence MQLMPFGCLLDY [TM1050] has an EZ_mean [1] of 0.09599, an EZ50kDa [1] of 0.0956 ± 0.004 and a vol [1] of 8153341. The “Batch Mean” value [1] was 0.1072, the EASY_mean [2] was 0.2124 and the vol [3] was 5027054. The “Batch Mean” value [3] was -0.2574.

FGSLLDYVREHK [CS1048] was tested, and the vol [1] was 7729416, the “Batch Mean” value [1] was 0.09362 and the EASY_mean [2] was 0.1889. For the same sequence, the vol [3] was 12972708 and the “Batch Mean” value [3] was 0.7597.

QLMPFGSLLDY [CS1032] gave an EZ_mean [1] of 0.8691, a Norm_mean [1] of 1.167 and an EZ50kDa [1] of 0.869 ± 0.174. For the same sequence, the vol [1] was 30217126, the “Batch Mean” value [1] was 0.787 and the EASY_mean [2, 4] was 0.7325. The vol [3] was 11215354 and the “Batch Mean” value [3] was -0.05053.

SLLDYVREHK [CS1027] was tested, and the EZ_mean [1] was 0.9134, the Norm_mean [1] was 1.317 and the EZ50kDa [1] was 0.811 ± 0.171. For the same sequence, the vol [1] was 29201845, the “Batch Mean” value [1] was 0.7556 and the EASY_mean [2, 4] was 0.7046. For the same sequence, the vol [3] was 11075589 and the “Batch Mean” value [3] was -1.466.

With SLLDYVREHKDN [CS1050] the EZ50kDa [1] was 0.0255 ± 0.005, the vol [1] was 7574013 and the “Batch Mean” value [1] was 0.08881. The EASY_mean [2] was 0.2031, the vol [3] was 12012525 and the “Batch Mean” value [3] was -2.24.

GSLLDYVREHK [CS1037] showed an EZ_mean [1] of 0.3673, an EZ50kDa [1] of 0.367 ± 0.022 and a vol [1] of 11854307. The “Batch Mean” value [1] was 0.2216, the EASY_mean [2] was 0.5397 and the vol [3] was 9517473. For the same sequence, the “Batch Mean” value [3] was -1.196.

In the case of SLLDYVREH [CS1017], the EZ_mean ([1]; EASY MHC-I A*11:01, 2019-08-01, mean of the 2 replicates) is reported as 0.7333, the “EZ MHC-I stability with HLA-A*11:01 single chain protein” value ([1]; Fig. 2f,g, EGFR peptide library) is reported as “strongly stabilizing” and the EZ50kDa [1] is reported as 0.733 ± 0.140. The vol [1] was 26057980, the “Batch Mean” value [1] was 0.6595 and the EASY_mean [2] was 0.4725. The vol [3] was 10431446 and the “Batch Mean” value [3] was -0.3978.

CLTSTVQLIM [TM1018] was tested, and the EZ_mean ([1]; EASY MHC-I A*11:01, run 2019-08-07, 5min, mean of 2 replicates) was -0.01698 and the EASY_mean ([2]; […], mean, STDEV) was 0.01464.

With TQLMPFGSLLDY [CS1043] the EZ_mean [1] was -0.01577 and the EASY_mean [2] was 0.01363.
